Measurements: PubChem BioAssay (NCI)
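Values below derive from 48-hour exposures of cells grown in 96-well plates, with endpoints linearly interpolated between the two concentrations bracketing the appropriate inhibition level. TGI denotes the concentration required for complete inhibition of growth.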

Tests used:
Experiment in all cases: NCI tumour cell line growth inhibition, 48 h
[1] = system: KM12 colon
[2] = system: SF-268 CNS
[3] = system: SK-MEL-28 melanoma
[4] = system: RXF 393 renal
[5] = system: SNB-19 CNS
[6] = system: HOP-18 NSCLC
[7] = system: XF 498 CNS
[8] = system: HT29 colon
[9] = system: DLD-1 colon
[10] = system: SNB-75 CNS
[11] = system: A549 NSCLC
[12] = system: COLO 205 colon
[13] = system: SNB-78 CNS
[14] = system: UACC-257 melanoma
[15] = system: DMS 114 small cell lung
[16] = system: KM20L2 colon
[17] = system: CAKI-1 renal
[18] = system: A498 renal
[19] = system: SK-MEL-5 melanoma
[20] = system: SK-MEL-2 melanoma
[21] = system: SK-OV-3 ovarian
[22] = system: OVCAR-4 ovarian
[23] = system: OVCAR-3 ovarian
[24] = system: NCI-H226 lung
[25] = system: NCI-H522 lung
[26] = system: UACC-62 melanoma
[27] = system: HOP-62 NSCLC
[28] = system: U251 CNS
[29] = system: NCI/ADR-RES ovarian
[30] = system: HCT-116 colon
[31] = system: HCC-2998 colon
[32] = system: OVCAR-8 ovarian
[33] = system: K-562 leukemia
[34] = system: NCI-H23 lung
[35] = system: MCF7 breast
[36] = system: MOLT-4 leukemia
[37] = system: HCT-15 colon
[38] = system: SW-620 colon
[39] = system: MALME-3M melanoma
[40] = system: M19-MEL melanoma
[41] = system: SN12K1 renal
[42] = system: HOP-92 NSCLC
[43] = system: SF-539 CNS
[44] = system: IGROV1 ovarian
[45] = system: CCRF-CEM leukemia
[46] = system: NCI-H460 lung
[47] = system: EKVX NSCLC
[48] = system: RPMI-8226 leukemia
[49] = system: P388/ADR leukemia
[50] = system: P388 leukemia
[51] = system: LOX IMVI melanoma
[52] = system: UO-31 renal
[53] = system: DMS 273 small cell lung
[54] = system: OVCAR-5 ovarian
[55] = system: SF-295 CNS
[56] = system: SN12C renal
[57] = system: HL-60(TB) leukemia

**Q.** Which TGI [1] does the source give for O=C1C(=O)c2cc([N+](=O)[O-])ccc2-c2ccc([N+](=O)[O-])cc21 here?
**A.** The TGI was 2.66 µM.

**Q.** And the TGI [2]?
**A.** The TGI was 1.93 µM.

**Q.** What about the TGI [3] of the same molecule?
**A.** The TGI was 4.21 µM.

**Q.** What about the TGI [4] of the same molecule?
**A.** Its TGI is 892 nM.

**Q.** And the TGI [5]?
**A.** The TGI was 4.65 µM.

**Q.** What about the TGI [6] of the same molecule?
**A.** The TGI was 8.89 µM.

**Q.** And the TGI [7]?
**A.** Its TGI is 2.64 µM.

**Q.** And the TGI [8]?
**A.** The TGI was 22.7 µM.

**Q.** And the TGI [9]?
**A.** The TGI was 3.95 µM.

**Q.** And the TGI [10]?
**A.** Its TGI is 5.2 µM.

**Q.** What about the TGI [11] of the same molecule?
**A.** Its TGI is 5.97 µM.

**Q.** And the TGI [12]?
**A.** The TGI was 7.75 µM.

**Q.** And the TGI [13]?
**A.** Its TGI is 2.66 µM.

**Q.** What about the TGI [14] of the same molecule?
**A.** The TGI was 3.19 µM.

**Q.** What about the TGI [15] of the same molecule?
**A.** The TGI was 908 nM.

**Q.** And the TGI [16]?
**A.** The TGI was 21.7 µM.

**Q.** And the TGI [17]?
**A.** The TGI was 2140 nM.

**Q.** What about the TGI [18] of the same molecule?
**A.** The TGI was 3.79 µM.

**Q.** What about the TGI [19] of the same molecule?
**A.** The TGI was 3.67 µM.

**Q.** What about the TGI [20] of the same molecule?
**A.** The TGI was 4.16 µM.

**Q.** What about the TGI [21] of the same molecule?
**A.** The TGI was 5.31 µM.

**Q.** And the TGI [22]?
**A.** The TGI was 0.951 µM.

**Q.** And the TGI [23]?
**A.** The TGI was 0.662 µM.

**Q.** And the TGI [24]?
**A.** The TGI was 4.09 µM.

**Q.** What about the TGI [25] of the same molecule?
**A.** Its TGI is 3 µM.

**Q.** And the TGI [26]?
**A.** Its TGI is 1.54 µM.

**Q.** And the TGI [27]?
**A.** The TGI was 5.87 µM.

**Q.** And the TGI [28]?
**A.** The TGI was 2.36 µM.

**Q.** And the TGI [29]?
**A.** Its TGI is 1030 nM.

**Q.** And the TGI [30]?
**A.** The TGI was 0.885 µM.

**Q.** And the TGI [31]?
**A.** Its TGI is 5.41 µM.

**Q.** What about the TGI [32] of the same molecule?
**A.** Its TGI is 1270 nM.

**Q.** And the TGI [33]?
**A.** The TGI was 2010 nM.

**Q.** What about the TGI [34] of the same molecule?
**A.** The TGI was 2.77 µM.

**Q.** And the TGI [35]?
**A.** The TGI was 2.61 µM.

**Q.** And the TGI [36]?
**A.** The TGI was 1150 nM.

**Q.** And the TGI [37]?
**A.** The TGI was 3.02 µM.

**Q.** And the TGI [38]?
**A.** The TGI was 1.56 µM.

**Q.** What about the TGI [39] of the same molecule?
**A.** Its TGI is 3.84 µM.

**Q.** What about the TGI [40] of the same molecule?
**A.** The TGI was 789 nM.

**Q.** And the TGI [41]?
**A.** The TGI was 964 nM.

**Q.** And the TGI [42]?
**A.** Its TGI is 1.64 µM.

**Q.** And the TGI [43]?
**A.** Its TGI is 1.83 µM.

**Q.** What about the TGI [44] of the same molecule?
**A.** Its TGI is 2.29 µM.

**Q.** And the TGI [45]?
**A.** Its TGI is 1.67 µM.

**Q.** What about the TGI [46] of the same molecule?
**A.** The TGI was 2650 nM.

**Q.** And the TGI [47]?
**A.** Its TGI is 3940 nM.

**Q.** What about the TGI [48] of the same molecule?
**A.** Its TGI is 1.35 µM.

**Q.** What about the TGI [49] of the same molecule?
**A.** The TGI was 2540 nM.

**Q.** What about the TGI [50] of the same molecule?
**A.** The TGI was 520 nM.

**Q.** What about the TGI [51] of the same molecule?
**A.** The TGI was 3.82 µM.

**Q.** What about the TGI [52] of the same molecule?
**A.** Its TGI is 4.44 µM.

**Q.** What about the TGI [53] of the same molecule?
**A.** The TGI was 1.83 µM.

**Q.** And the TGI [54]?
**A.** The TGI was 6.4 µM.

**Q.** And the TGI [55]?
**A.** Its TGI is 3.53 µM.

**Q.** What about the TGI [56] of the same molecule?
**A.** The TGI was 2.29 µM.

**Q.** And the TGI [57]?
**A.** Its TGI is 2.06 µM.

**Q.** What does the source list for Cc1cc(C(=O)NCCN(C)C)c2nc3ccccc3cc2c1?
**A.** TGI [1]: 14.1 µM; TGI [2]: 10.2 µM; TGI [3]: 10.7 µM; TGI [4]: 4320 nM; TGI [5]: 6.89 µM; TGI [6]: 7.16 µM; TGI [7]: 3.69 µM; TGI [8]: 5.7 µM; TGI [9]: 10.9 µM; TGI [10]: 11.8 µM; TGI [11]: 6.81 µM; TGI [12]: 3.54 µM; TGI [13]: 14.5 µM; TGI [14]: 5.02 µM; TGI [15]: 4120 nM; TGI [16]: 4.31 µM; TGI [17]: 1290 nM; TGI [18]: 6.37 µM; TGI [19]: 3.6 µM; TGI [20]: 7.26 µM; TGI [21]: 8.97 µM; TGI [22]: 10.6 µM; TGI [23]: 8.98 µM; TGI [24]: 3.33 µM; TGI [26]: 5.05 µM; TGI [27]: 6.38 µM; TGI [28]: 10.7 µM; TGI [29]: 4620 nM; TGI [30]: 10.1 µM; TGI [31]: 17.7 µM; TGI [32]: 4280 nM; TGI [33]: > 31300 nM; TGI [34]: 5.93 µM; TGI [35]: 8 µM; TGI [36]: > 21800 nM; TGI [37]: 11.4 µM; TGI [38]: 8.88 µM; TGI [39]: 4.28 µM; TGI [40]: 4420 nM; TGI [41]: 2600 nM; TGI [42]: 5.27 µM; TGI [43]: 12.7 µM; TGI [44]: 12.6 µM; TGI [45]: 9.57 µM; TGI [46]: 2360 nM; TGI [47]: 971 nM; TGI [48]: 5.71 µM; TGI [49]: 2180 nM; TGI [50]: 1680 nM; TGI [51]: 3.5 µM; TGI [52]: 3.93 µM; TGI [53]: 10.8 µM; TGI [54]: 8.56 µM; TGI [55]: 3.91 µM; TGI [56]: 7.26 µM; TGI [57]: 3.95 µM
